Measurements as given in patent US9598384B2, “3-(2-amino-ethyl)-alkylidene)-thiazolidine-2,4-dione and 1-(2-amino-ethyl)-alkylidene-1,3-dihydro-indol-2-one derivatives as selective sphingosine kinase 2 inhibitors” (VIRGINIA COMMONWEALTH UNIVERSITY, priority 2012, dated 2017).
“And” between values parts separate entries of the source, which are not always exact repeats. Identical values can stand only once. “Also recorded” adds a separate entry of the source.

Legend:
SphK2 [1] = molecular target: T1, SphK2 (Homo sapiens, UniProt Q9NRA0); experiment: Phosphorylation of FTY720 (SphK2 specific substrate) in U937 cells; assay type: cell-based; design: U937 cells were treated with FTY720 (1 μM) in the absence or presence of indicated K145 for 3 h; endogenous in cells; host or cells: U937; settings: FTY720 1 μM, 3 h
T1 sequence (Q9NRA0 1-654): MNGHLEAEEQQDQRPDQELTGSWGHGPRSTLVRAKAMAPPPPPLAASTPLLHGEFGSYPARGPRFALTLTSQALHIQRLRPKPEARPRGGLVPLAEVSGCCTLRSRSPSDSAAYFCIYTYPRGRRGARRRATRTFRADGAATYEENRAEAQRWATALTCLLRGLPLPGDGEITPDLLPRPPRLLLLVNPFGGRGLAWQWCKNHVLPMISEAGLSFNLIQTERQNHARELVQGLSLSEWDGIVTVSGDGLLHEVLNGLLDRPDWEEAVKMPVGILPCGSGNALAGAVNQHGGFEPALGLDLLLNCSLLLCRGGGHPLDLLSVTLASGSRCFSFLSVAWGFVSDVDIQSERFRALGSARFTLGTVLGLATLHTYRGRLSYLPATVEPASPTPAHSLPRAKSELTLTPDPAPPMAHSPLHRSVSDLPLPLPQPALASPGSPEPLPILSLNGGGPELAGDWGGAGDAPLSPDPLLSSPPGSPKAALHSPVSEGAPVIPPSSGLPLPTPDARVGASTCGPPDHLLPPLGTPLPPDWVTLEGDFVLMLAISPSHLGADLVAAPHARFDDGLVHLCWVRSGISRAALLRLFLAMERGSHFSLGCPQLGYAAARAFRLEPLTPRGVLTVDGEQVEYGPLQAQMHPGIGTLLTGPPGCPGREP

[2] = system: Raf/MEK/ERK and PI3K/Akt signaling pathways; experiment: Western blot analysis of ERK and Akt phosphorylation; assay type: cell-based
Procedure: Cells (5×10^5 per ml) were treated with various concentrations of test compound at 37° C. (5% CO2) for 3 hrs, then stimulated with TPA at a final concentration of 200 nM for 20 min. Samples from whole-cell pellets were prepared and 30 μg protein for each condition was subjected to SDS-PAGE, transferred onto a PVDF membrane, and blocked with 5% fat-free milk for 30 min. The membrane is probed with primary antibodies overnight at 4° C. followed by incubation with horseradish peroxidase-labeled anti-mouse IgG (1:5000, BD Bioscience). The immunoreactive bands are detected by chemilluminescence methods (Pierce) and visualized on Kodak Omat film. The following primary antibodies were used: phospho-p44/42 MAPK (ERK1/2, Thr202/Tyr204), p44/42 MAPK, phospho-p90RSK (Thr359/Ser363), RSK1/RSK2/RSK3 (Cell Signaling). Blots were reprobed with antibodies against α-tubulin to ensure equal loading and transfer of proteins.

SphK2 [3] = molecular target: T1, SphK2; experiment: SphK2 activity assay (sphingosine substrate, with kinetic study); assay type: biochemical
Procedure: A) SphK1 and SphK2 activities were measured with 5 μM sphingosine in the absence or presence of the indicated concentrations of K145 or 10 μM DMS. […] Data are expressed as percentage of control activity averaged from 2 independent experiments. Data are expressed as mean value±SEM.
SphK2 was incubated with indicated compounds at 10 μM, then the activity of SphK2 was determined. The data shown here is a relative activity of SphK2 compared to control (no inhibitor, column labeled Sph in the Figure). […] “A” and “B” refer to different batches of a compound.
SphK2 was incubated with indicated compounds at 10 μM, then the activity of SphK2 was determined. The data shown here is a relative activity of SphK2 compared to control (no inhibitor).

[4] = system: human leukemia U937 cells; experiment: Cell viability assay in human leukemia U937 cells; assay type: cell-based
Procedure: Cells were cultured at a density of 5×10^4 (U937) or 1×10^4 (PC-3, DU145, M12, HT29) cells per well in flat bottomed 96-well plates and treated with various concentrations of test compound at 37° C. (5% CO2). After 24 h, 20 μL of CellTiter 96® Aqueous One Solution Reagent (Promega, Madison, Wis.) was added to each well according to the manufacturer's instructions. After 1 hour, the cell viability was determined by measuring the absorbance at 490 nm using a micro-plate reader.

U937 cells = experiment: Uptake of K145 by U937 cells, ESI-MS/MS; assay type: in vitro ADME, human; settings: 3 h, concentration dependent
Procedure: FIG. 16A-E. K145 accumulates and suppresses the S1P level. A and B) U937 cells were treated with K145 at the indicated concentrations for 3 h and the levels of K145 and S1P were measured by ESI-MS/MS. C) HEK293 cells were treated with K145 (10 μM) for 2 h. Lipids were extracted and different chain length species of ceramide were determined by LC-ESI-MS/MS. Numbers indicate chain length followed by the number of double bonds in the fatty acid. Data are averages of triplicate determinations and are expressed as pmol lipid/10^6 cells. D) U937 cells were treated with or without K145 (10 μM) for 3 h and levels of C1P species were determined by ESI-MS/MS. E) U937 cells were treated with FTY720 (1 μM) in the absence or presence of indicated K145 for 3 h, then FTY720-P was measured by ESI-MS/MS. *P<0.05 compared to control.
Next we examined whether K145 affects cellular levels of S1P. […] Therefore, we further characterized K145 in U937 cells. […] This might be due to the fact that many enzymes such as SphK1, SphK2, S1P lyase, and S1P phosphatise, not just SphK2, are involved in the regulation of cellular S1P. […] To further confirm its SphK2 selectivity, we then tested the effects of K145 on the phosphorylation of FTY720, a SphK2 specific substrate.

For `CCCCOc1ccc(CC/C=C2\SC(=O)N(CCN)C2=O)cc1` [K145, 3-(2-aminoethyl)-5-[3-(4-butoxyl-phenyl)-propylidene]-thiazolidine-2,4-dione], which “phosphorylation of FTY720” value (SphK2 [1]) is on record?
Its value is “inhibited”.

What about the “phosphorylation of both ERK and Akt” value ([2]; 3 μM, 3 hrs treatment, then TPA stimulation) of the same compound?
The value was “significantly inhibited”.

And the “inhibition of Raf/MEK/ERK and PI3K/Akt signaling pathways” value ([2]; Western blot, FIGS. 9 and 10)?
Its value is “inhibits”.

And the Ki (SphK2 [3]; Lineweaver-Burk analysis, increasing concentrations of sphingosine)?
Its Ki is 6.4 ± 0.7 µM.

What about the IC50 (SphK2 [3]; recombinant SphK2, 5 μM sphingosine) of the same compound?
The IC50 was 5 µM and 4.3 µM.

What about the “inhibition of SphK2 activity (in words)” value (SphK2 [3]; relative activity vs no inhibitor, compounds at 10 μM (FIGS. 1, 3, 5)) of the same compound?
The value was “significantly inhibit SphK2; also recorded: inhibits SphK2”.

What about the “type of SphK2 inhibition” value (SphK2 [3]; with the substrate sphingosine) of the same compound?
Its value is “competitive inhibitor”.

And the “IC50 for proliferation of tested cancer cells (in words)” value ([4]; FIG. 8, U937 cells, 24 h)?
Its value is “single digit micromolar”.

And the “inhibition of growth/proliferation of U937 cells (in words)” value ([4]; human leukemia U937 cells)?
The value was “dose-dependently inhibits the growth”.

What about the “uptake by U937 cells” value (U937 cells) of the same compound?
Its value is “readily taken up”.
